Experimental data as given in US7951530B2, “Cyclic maltosylmaltose, cyclic maltosymaltose-forming enzyme, their preparation and uses” (Kabushiki Kaisha Hayashibara Seibutsu Kagaku Kenkyujo, priority 2003, dated 2011).

T1: Salivary α-amylase (Homo sapiens, UniProt P0DUB6)
T1 sequence (P0DUB6 16-511): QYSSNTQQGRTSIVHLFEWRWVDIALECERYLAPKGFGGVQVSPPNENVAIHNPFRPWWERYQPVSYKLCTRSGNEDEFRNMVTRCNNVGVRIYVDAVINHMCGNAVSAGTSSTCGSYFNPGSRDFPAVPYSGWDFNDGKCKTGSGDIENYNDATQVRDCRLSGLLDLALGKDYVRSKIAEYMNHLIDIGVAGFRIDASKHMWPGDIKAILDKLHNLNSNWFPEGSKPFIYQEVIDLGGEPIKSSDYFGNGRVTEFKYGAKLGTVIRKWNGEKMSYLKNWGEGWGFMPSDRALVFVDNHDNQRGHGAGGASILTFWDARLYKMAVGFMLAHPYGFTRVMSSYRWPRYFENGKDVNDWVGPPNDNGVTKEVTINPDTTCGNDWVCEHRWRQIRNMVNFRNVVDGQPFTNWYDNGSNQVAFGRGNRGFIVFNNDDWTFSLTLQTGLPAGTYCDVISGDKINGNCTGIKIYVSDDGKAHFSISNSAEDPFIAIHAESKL

B1: CMM-forming enzyme: enzyme from Arthrobacter globiformis M6 acting on α-1,4 glucans of polymerization degree 3 or higher to form CMM; SEQ ID NO:2 (protein, listed as Arthrobacter globiformis)
chain: DPTTSPGPLAEGDVIYQVLVDRFEDGDPTNNDQGDGEYDPSDLGFYHGGDWAGLTDRLDYIADLGVTAIWLSPVSEQQPLSRDGLEASYHGYFTRDFATPNEHFGDRAELQELIDTAHDLGLKMILDVVPNHTADYLAGTSTTYSPSTYKPASPLDDASYFHHAGDCLFNGLETQTQIENCDLGGLDDLDQSNPVVSSHLMSTYKDWVDMGFDGIRVDAARSVPKPWLADFEAEMGVPTFGEVFVGDVDYVSEYQDYEWGVLDFPYFFTVREAFSADTDMNKLGDLFDQDSKYANPNRLETFLDNHDRARFLTWADDNYQRLRSGLTFLLTSRGVPVIYYGTEQADDGNGNPYEVPIANKDNRKDMESFDQNSNLYKHIQRLTAIKAAYPALQVGTQREMWSDTSVYGFSRRVDSTGAEAMTFSSNSWTTQTRTVPLRAESSITVGTTLTNLMNTGDTVTVTAGGVTGKQITVSLGEHESKVYAPGTPVSAYSPEARNTTKIRVHYNVGLGHSIAIRGDEYPFTWTSGRGARNVASDVWEFEVERIPDGETFQFKPLIDDVTWSTGGNFTGTGGDVIDIYPTF

Assays:
[1] = Amino-carbonyl reaction with polypeptone; assay type: physicochemical; details: 5% (w/v) saccharide, 5% (w/v) polypeptone, 120° C., blank subtracted
Method: As a control, an aqueous solution containing maltose and polypeptone was prepared in the same manner using maltose except for the powdery hydrous crystalline CMM. Four milliliters each of the solution was put in a glass tube, sealed and then heated at 120° C. for 30, 60, or 90 min. After cooling the solutions, the degrees of coloring of the solutions were measured to estimate the degree of amino-carbonyl reaction. As a blank test, a solution containing polypeptone only was heated in the same manner. The degree of coloring was defined as an absorbance at 480 nm using a 1 cm-cell after subtracting the absorbance of the blank test.

CMM-forming enzyme = test: Action on various saccharides (substrate specificity, TLC); assay type: biochemical, Arthrobacter globiformis M6; parameters: key: “−” means “Not changed”; “+” means “Spot of substrate is slightly decreased and other products are detected”; “++” means “Spot of substrate is markedly decreased and other products are detected”; “+++” means “Spot of substrate is virtually disappeared and other products are detected”; details: substrate 2% (w/v), one unit/g-substrate enzyme, 40° C., pH 6.0, 24 hours, TLC before and after reaction
Method: Substrate specificity of CMM-forming enzyme of the present invention was investigated using various saccharides as substrates. Substrate solutions were prepared by dissolving maltose, maltotriose, maltotetraose, maltopentaose, maltohexaose, maltoheptaose, neotrehalose, trehalose, kojibiose, nigerose, […] isomaltose, isomaltotriose, panose, isopanose, maltitol, maltotriitol, α-, β- or γ-cyclodextrin, amylose, soluble starch, glycogen, pullulan or dextran into water. Each substrate solution was admixed with acetate buffer (pH 6.0) and CaCl2 to give final concentrations of 20 mM and 1 mM, respectively. […] Substrate concentration was set to 2% (w/v) and followed by the enzyme reaction at 40° C. and pH 6.0 for 24 hours. Action and the specificity of the enzyme on these saccharides were confirmed by analyzing the reaction mixture before and after the reaction by TLC described in Experiment 1.

[2] = Amino-carbonyl reaction with glycine; assay type: physicochemical; details: […] (w/v) saccharide, 0.5% (w/v) glycine, pH 8.0, 100° C.
Method: As a control, an aqueous solution containing maltose and glycine was prepared in the same manner using maltose except for the powdery hydrous crystalline CMM. Four milliliters each of the solution was put in a glass tube, sealed and then heated at 100° C. for 30, 60, or 90 min. After cooling the solutions, the degrees of coloring of the solutions were measured to estimate the degree of amino-carbonyl reaction. The degree of coloring was defined as an absorbance at 480 nm using a 1 cm-cell.

Small intestinal enzymes = test: Digestibility by small intestinal enzymes
Excerpt: (§1) 43, 23-29 (1990), the digestibility of CMM by salivary α-amylase, artificial gastric juice, pancreas amylase, and small intestinal enzymes were investigated using the powdery hydrous crystalline CMM, obtained by the method in Experiment 14.

Pancreas α-amylase = test: Digestibility by pancreas α-amylase
Excerpt: as §1

[3] = Digestibility by artificial gastric juice
Excerpt: as §1

Salivary α-amylase = biological target: T1, Salivary α-amylase; test: Digestibility by salivary α-amylase
Excerpt: as §1

[4] = Isoelectric point of CMM-forming enzyme; assay type: physicochemical, Arthrobacter globiformis M6
Method: The purified enzyme preparation of CMM-forming enzyme, obtained by the method in Experiment 4, was subjected to polyacrylamide gel isoelectrofocusing containing 2% (w/v) “AMPHOLINE”, a carrier ampholyte commercialized by Amersham Biosciences, Tokyo, Japan and isoelectric point of CMM-forming enzyme was measured compare with isoelectric point markers, commercialized by Amersham Biosciences, Tokyo, Japan.

[5] = Optimum temperature and optimum pH of the enzyme reaction; assay type: biochemical, Arthrobacter globiformis M6
Method: The enzyme activity of CMM-forming enzyme of the present invention can be assayed as follows: A substrate solution is prepared by dissolving soluble starch in 50 mM acetate buffer (pH 6.0) containing 2 mM CaCl2 to give a concentration of 2% (w/v). A half milliliter of an enzyme solution is added to 0.5 ml of the substrate solution, and the mixture solution is incubated at 40° C. for 30 min. After stopping the reaction by heating at about 100° C. for 10 min, the reaction mixture is admixed with 4,000 units/g-solid of α-glucosidase and 250 units/g-solid of glucoamylase to hydrolyze remaining soluble starch and by-products, oligosaccharides, and followed by the enzyme treatment at 50° C. for 1 hour. The amount of CMM contained in the treated mixture is determined by HPLC described later in Experiment 1. One unit activity of CMM-forming enzyme is defined as the amount of enzyme which forms one μmole of CMM per minute under the above conditions.
The results are in FIG. 5 (Optimum temperature) and in FIG. 6 (Optimum pH), respectively.

[6] = recombinant enzyme purified from transformant BMB1

| Molecule | Degree of coloring (A480 nm) ([1]; heating time 0 min) | Degree of coloring (A480 nm) ([1]; heating time 30 min) | Degree of coloring (A480 nm) ([1]; heating time 60 min) | Degree of coloring (A480 nm) ([1]; heating time 90 min) | Action (CMM-forming enzyme) | Degree of coloring (A480 nm) ([2]; heating time 0 min) | Degree of coloring (A480 nm) ([2]; heating time 30 min) | Degree of coloring (A480 nm) ([2]; heating time 60 min) | Degree of coloring (A480 nm) ([2]; heating time 90 min) | Degradation rate (%) (Small intestinal enzymes) | Degradation rate (%) (Pancreas α-amylase) | Degradation rate (%) [3] [%] | Degradation rate (%) (Salivary α-amylase) | isoelectric point (pI) ([4]; purified enzyme from Arthrobacter globiformis M6, polyacrylamide gel isoelectrofocusing) | isoelectric point [4, 6] | optimum pH ([5]; purified enzyme from M6, reacted at 40° C. for 30 min) | optimum temperature ([5]; purified enzyme from M6, reacted at pH 6.0 for 30 min) [°C] | optimum pH [5, 6] | optimum temperature of CMM-forming enzyme activity [5, 6] [°C] |
| --- | --- | --- | --- | --- | --- | --- | --- | --- | --- | --- | --- | --- | --- | --- | --- | --- | --- | --- | --- |
| OC[C@H]1O[C@H](O[C@H]2[C@H](O)[C@@H](O)C(O)O[C@@H]2CO)[C@H](O)[C@@H](O)[C@@H]1O (mixture of isomers) [Maltose, maltose] | 0.00 | 0.10 | 0.30 | 0.62 | − | 0.00 | 0.02 | 0.08 | 0.17 |  |  |  |  |  |  |  |  |  |  |
| OC[C@@H](O)[C@@H](O[C@H]1O[C@H](CO)[C@@H](O)[C@H](O)[C@H]1O)[C@H](O)[C@@H](O)CO [Maltitol, maltitol] |  |  |  |  | − |  |  |  |  | 4 | 0 | 0 | 0 |  |  |  |  |  |  |
| B1 |  |  |  |  |  |  |  |  |  |  |  |  |  | 3.6±0.5 | about 3.6±0.5 | 5.5 to 6.5 | 50 to 55 | 5.5 to 6.5 | 50 to 55 |
